US10414811B2, “Protease-resistant lipidated GLP-1 analogs” (MEDIMMUNE LIMITED, priority 2015, dated 2019)
Read-outs that look alike come from different tables or passages of the source. Numbered stars: 1 amine (or outer) side, 2 acyl side, 3 side chain; on linkers, the order of the positions; unused ones are H or OH. Square brackets hold non-standard residues; d marks the D form. Side chains are listed from the residue outwards. Peptide text beside a SMILES is read from it. * marks the point of attachment. γGlu = O=C(O)[C@H](CCC(=O)[*:2])N[*:1]; αMeF = C[C@](N)(Cc1ccccc1)C(=O)O; αMeK = C[C@](N)(CCCCN)C(=O)O; Lauroyl = CCCCCCCCCCCC(=O)*; αMeS = C[C@](N)(CO)C(=O)O; AEEA = NCCOCCOCC(=O)O; Aib = CC(C)(N)C(=O)O

Assays:
GLP-1R (INS1e assay) = molecular target: T1, GLP-1R (INS1e assay) (Rattus norvegicus, UniProt P32301); test: INS1e assay, cAMP activity at GLP-1R; assay type: cell-based; settings: bis-lipidated peptides
T1 construct: endogenous in cells; host or cells: INS-1E cells
T1 sequence (P32301 22-463): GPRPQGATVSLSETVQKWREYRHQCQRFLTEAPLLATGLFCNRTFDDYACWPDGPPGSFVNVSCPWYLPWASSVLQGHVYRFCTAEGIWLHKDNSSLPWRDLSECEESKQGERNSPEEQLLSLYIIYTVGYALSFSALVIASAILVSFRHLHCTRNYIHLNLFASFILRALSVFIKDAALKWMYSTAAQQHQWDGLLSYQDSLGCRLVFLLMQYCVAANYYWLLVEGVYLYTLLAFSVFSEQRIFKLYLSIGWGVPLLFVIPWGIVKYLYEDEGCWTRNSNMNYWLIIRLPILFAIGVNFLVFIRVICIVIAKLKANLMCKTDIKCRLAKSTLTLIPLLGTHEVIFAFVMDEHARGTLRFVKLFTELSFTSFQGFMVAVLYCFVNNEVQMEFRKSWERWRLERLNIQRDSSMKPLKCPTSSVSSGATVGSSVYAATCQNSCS
Outline: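 cAMP was quantified by two-step HTRF, using anti-cAMP cryptate donor and cAMP-d2 acceptor, each diluted 1/20 in conjugate and lysis buffer. EC50 values of the synthetic peptides were derived from the cAMP readout.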

pepsin = molecular target: T2, pepsin (Sus scrofa, UniProt P00791); test: Proteolytic resistance to pepsin (% remaining intact peptide, RP-HPLC AUC); assay type: in vitro ADME; settings: pig, porcine pepsin, 37° C., pH 2.0, read-out: Percentage remaining intact peptide (AUC by RP-HPLC) upon incubation with pepsin
T2 construct: purchased Sigma P7012
Procedure: Lyophilized porcine […] pepsin (Sigma: P7012) was reconstituted to afford a solution of 200 μg/mL (˜500 units/mL) in assay buffer (0.1 M HCl, pH 2.0) to give the enzyme stock solution. […] Ratio enzyme (units):peptide (μmoles)˜1:6. […] Ratio enzyme (units):peptide (μmoles)˜2:1.
Lyophilized porcine […] pepsin (Sigma: P7012) was reconstituted to 200 μg/mL (˜500 units/mL) in assay buffer (1.0 M HCl, pH 2.0) to give the enzyme stock solution.

[1] = Proteolytic resistance to fasted-state simulated intestinal fluid (FASSIF/Pancreatin); assay type: in vitro ADME; settings: 37° C., read-out: Percentage remaining intact peptide (AUC by RP-HPLC) upon incubation with fasted-state simulated intestinal fluid (FASSIF/P)
Procedure: A fresh suspension of FASSIF/P (Fasted-State Simulated Intestinal Fluid+USP Pancreatin®) was prepared according to that described by Galia, Nicolaides, Hörter, Löbenberg, Reppas and Dressman: Pharm. Res. 15 (1998) 698-705. The resulting preparation is proteolytically equivalent to ˜375 units/mL (375 kU/L) and was used immediately without storage. Peptides for evaluation (1.0 mg, ˜250 nmoles) were initially dissolved in pre-warmed FASSIF without Pancreatin® (200 μL) to which was added pre-warmed fresh FASSIF/Pancreatin® (100 μL) to initiate potential digestion. Following momentary vortexing of the Eppendorf reaction tube the mixture was incubated at 37° C. in a thermostatic waterbath for the duration of the experiment. 25 μL aliquots of the co-incubated peptide-enzyme mixture were periodically withdrawn (t=0, 5 m, 10 m, 15 m, 30 m, 1 h, 2 h) and quenched immediately by addition to a solution of 10% TFA in 1:1 water/acetonitrile (75 μL) to arrest proteolytic activity.

Neprilysin = molecular target: T3, Neprilysin (Homo sapiens, UniProt P08473); test: Proteolytic resistance to neprilysin (% remaining peptide, RP-HPLC AUC); assay type: in vitro ADME; settings: 37° C., pH 8.3
T3 construct: purchased R&D Systems 1182-ZNC-010
Procedure: Ratio enzyme (units):peptide (μmoles)˜1:33. […] Ratio enzyme (units):peptide (μmoles)˜1:2.5.
15 μL aliquots (˜15 μg initial peptide) of the peptide-enzyme mixture were periodically withdrawn (t=0, 30 mins, 1 hr, 2 hr, 4 hr, 8 hr, 24 hr) and quenched immediately by addition to an equal volume (15 μL) of 5% TFA (v/v) in 1:1 water/acetonitrile to arrest proteolytic activity. 20 μL aliquots (˜10 μg initial peptide) were analyzed by LC/MS and/or analytical RP-HPLC as follows: LC/MS method: Agilent Polaris C8-A column (4.6×100 mm, 3 micron) eluted with a linear binary gradient of 10-90% MeCN (0.1% TFA v/v) in water (0.1% TFA v/v) over 30 mins at 1.5 mL min-1 at ambient temperature with detection by both UV absorption at 210 nm and ionization using a Waters 3100 mass detector (ESI+ mode). Peptide fragments deriving from enzymatic hydrolysis were identified by molecular weight, allowing location of the site of cleavage. Analytical RP-HPLC method: Agilent Polaris C8-A column (4.6×100 mm, 3 micron) eluted with a linear binary gradient of 10-90% MeCN (0.1% TFA v/v) in water (0.1% TFA v/v) over either 10 or 15 mins at 1.5 mL min^−1 at 40° C. with detection by UV absorption at 210 nm. Manual integration (AUC) allowed estimation of remaining intact peptide over the time course of the experiment.
25 μL aliquots (˜6 μg initial peptide) were analyzed by LC/MS and/or analytical RP-HPLC as follows: LC/MS method: Agilent Polaris C8-A column (4.6×100 mm, 3 micron) eluted with a linear binary gradient of 10-90% MeCN (0.1% TFA v/v) in water (0.1% TFA v/v) over 30 mins at 1.5 mL min^−1 at ambient temperature with detection by both UV absorption at 210 nm and ionization using a Waters 3100 mass detector (ESP mode). Peptide fragments deriving from enzymatic hydrolysis were identified by molecular weight, allowing location of the site of cleavage. Analytical RP-HPLC method: Agilent Polaris C8-A column (4.6×100 mm, 3 micron) eluted with a linear binary gradient of 10-90% MeCN (0.1% TFA v/v) in water (0.1% TFA v/v) over either 10 or 15 mins at 1.5 mL min^−1 at 40° C. with detection by UV absorption at 210 nm. Manual integration (AUC) allowed estimation of remaining intact peptide over the time course of the experiment.

[2] = molecular target: T4, human GLP-1 receptor (GLP-1R) (Homo sapiens, UniProt P43220); test: cAMP assay, human GLP-1R cells; assay type: cell-based; settings: bis-lipidated peptides
T4 construct: expressed in transfected cells
Outline: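 Peptide-stimulated cAMP measured by two-step HTRF after a 30 min room-temperature incubation with receptor-expressing cells (hGLP-1R, hGIPR at 1×10^5 cells/ml; hGCGR at 2×10^5 cells/ml). Duplicate dilutions; EC50 from 4-parameter logistic fit of % Delta F.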

trypsin = molecular target: T5, trypsin (Sus scrofa, UniProt P00761); test: Proteolytic resistance to trypsin (% remaining intact peptide, RP-HPLC AUC); assay type: in vitro ADME; settings: pig, porcine pancreatic trypsin, 37° C., pH 7.8, read-out: Percentage remaining intact peptide (AUC by RP-HPLC) upon incubation with trypsin
T5 construct: purchased Sigma T7409
Description: Ratio enzyme (units):peptide (μmoles)˜1:11. […] Ratio enzyme (units):peptide (μmoles)˜1.2:1.

T3 sequence (P08473 whole entry): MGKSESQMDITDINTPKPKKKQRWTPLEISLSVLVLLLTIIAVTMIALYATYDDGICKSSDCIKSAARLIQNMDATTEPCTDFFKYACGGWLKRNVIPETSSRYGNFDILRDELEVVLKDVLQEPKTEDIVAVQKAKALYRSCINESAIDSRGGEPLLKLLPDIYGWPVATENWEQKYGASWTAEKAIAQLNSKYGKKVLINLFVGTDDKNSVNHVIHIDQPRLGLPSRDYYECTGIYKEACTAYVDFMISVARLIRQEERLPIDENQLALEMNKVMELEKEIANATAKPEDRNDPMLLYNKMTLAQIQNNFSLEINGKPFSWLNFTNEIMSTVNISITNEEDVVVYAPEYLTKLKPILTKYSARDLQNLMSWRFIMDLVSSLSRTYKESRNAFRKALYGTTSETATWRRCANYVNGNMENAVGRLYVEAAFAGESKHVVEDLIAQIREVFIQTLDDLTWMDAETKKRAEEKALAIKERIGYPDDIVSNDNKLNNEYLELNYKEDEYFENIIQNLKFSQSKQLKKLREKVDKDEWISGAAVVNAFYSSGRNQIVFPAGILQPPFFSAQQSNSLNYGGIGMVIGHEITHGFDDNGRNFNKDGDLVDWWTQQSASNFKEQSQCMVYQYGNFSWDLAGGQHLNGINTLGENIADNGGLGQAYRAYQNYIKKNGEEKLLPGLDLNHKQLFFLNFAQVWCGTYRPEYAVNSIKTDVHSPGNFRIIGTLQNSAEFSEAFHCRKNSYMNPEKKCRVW
T5 sequence (P00761 9-231): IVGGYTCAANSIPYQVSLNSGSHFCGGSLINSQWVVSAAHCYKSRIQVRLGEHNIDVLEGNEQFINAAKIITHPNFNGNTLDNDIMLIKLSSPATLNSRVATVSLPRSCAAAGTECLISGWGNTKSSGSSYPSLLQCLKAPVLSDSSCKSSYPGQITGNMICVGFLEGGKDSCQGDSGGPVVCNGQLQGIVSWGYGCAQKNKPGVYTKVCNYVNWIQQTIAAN
T2 sequence (P00791 60-385): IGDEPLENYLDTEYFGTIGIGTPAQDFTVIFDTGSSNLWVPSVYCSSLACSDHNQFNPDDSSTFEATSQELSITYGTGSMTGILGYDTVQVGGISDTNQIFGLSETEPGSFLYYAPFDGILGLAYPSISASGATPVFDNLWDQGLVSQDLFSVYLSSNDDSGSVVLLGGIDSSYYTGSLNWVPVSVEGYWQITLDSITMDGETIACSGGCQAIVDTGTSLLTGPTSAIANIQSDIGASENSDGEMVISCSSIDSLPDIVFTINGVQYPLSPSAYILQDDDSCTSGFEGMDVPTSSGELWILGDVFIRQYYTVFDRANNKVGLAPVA
T4 sequence (P43220 24-463): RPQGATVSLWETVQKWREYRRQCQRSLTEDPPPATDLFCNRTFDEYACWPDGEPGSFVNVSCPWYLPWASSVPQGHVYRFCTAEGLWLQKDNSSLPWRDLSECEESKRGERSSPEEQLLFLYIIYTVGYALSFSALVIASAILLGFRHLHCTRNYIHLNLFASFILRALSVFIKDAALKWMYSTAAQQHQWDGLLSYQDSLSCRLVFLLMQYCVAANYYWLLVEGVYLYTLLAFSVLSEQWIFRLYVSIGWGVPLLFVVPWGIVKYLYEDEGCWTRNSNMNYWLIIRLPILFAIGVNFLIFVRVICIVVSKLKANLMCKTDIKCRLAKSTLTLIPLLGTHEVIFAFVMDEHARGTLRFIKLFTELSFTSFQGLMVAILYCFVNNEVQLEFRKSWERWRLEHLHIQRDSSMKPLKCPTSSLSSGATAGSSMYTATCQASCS

## CCCCCCCCCCCC(=O)N[C@@H](CCC(=O)NCCOCCOCC(=O)NCCOCCOCC(=O)NCCCC[C@H](NC(=O)[C@H](C)NC(=O)[C@@H](NC(=O)[C@H](Cc1ccccc1)NC(=O)[C@H](CCC(=O)O)NC(=O)[C@](C)(CCCCN)NC(=O)[C@H](C)NC(=O)[C@H](C)NC(=O)[C@H](CCC(=O)O)NC(=O)CNC(=O)[C@H](CCC(=O)O)NC(=O)[C@H](CC(C)C)NC(=O)[C@H](CCCCNC(=O)COCCOCCNC(=O)COCCOCCNC(=O)CC[C@H](NC(=O)CCCCCCCCCCC)C(=O)O)NC(=O)[C@H](CO)NC(=O)[C@](C)(CO)NC(=O)[C@@H](NC(=O)[C@H](CC(=O)O)NC(=O)[C@H](CO)NC(=O)[C@@H](NC(=O)[C@](C)(Cc1ccccc1)NC(=O)[C@H](CO)NC(=O)CNC(=O)[C@H](CCC(=O)O)NC(=O)C(C)(C)NC(=O)[C@@H](N)Cc1c[nH]cn1)[C@@H](C)O)C(C)C)[C@@H](C)CC)C(=O)N[C@H](C(=O)N[C@H](C(=O)N[C@@H](CCC(=O)O)C(=O)NCC(=O)NCC(N)=O)C(C)C)C(C)C)C(=O)O [compound 263] (H-H[Aib]EGS[αMeF]TSDV[αMeS]SK([AEEA-AEEA-γGlu-Lauroyl])LEGEAA[αMeK]EFIAK([AEEA-AEEA-γGlu-Lauroyl])VVEGG-NH2)
GLP-1R (INS1e assay); mean of n1 and n2, read-out: INS1e assay EC50 Mean pM GLP-1R
  EC50: 132 pM
GLP-1R (INS1e assay); replicate n1, read-out: INS1e assay EC50 GLP-1R n1
  EC50: 120 pM
GLP-1R (INS1e assay); replicate n2, read-out: INS1e assay EC50 GLP-1R n2
  EC50: 144 pM
pepsin; t = 30 min
  remaining at 0.5 h: 57.7%
pepsin; t = 1 hr
  remaining at 1 h: 36%
pepsin; t = 2 hr
  remaining at 2 h: 14.3%
pepsin; t = 4 hr
  remaining at 4 h: 5.1%
pepsin; t = 8 hr
  remaining at 8 h: 1.1%
pepsin; t = 24 hr
  remaining at 24 h: 0%
[1]; t = 5 m
  remaining at 5 min, […]: 93.1%
[1]; t = 1 h
  remaining at 1 h, […]: 35.1%
Neprilysin; recombinant neprilysin, t = 30 min
  remaining at 0.5 h: 98.3%
Neprilysin; recombinant neprilysin, t = 1 hr
  remaining at 1 h: 99.5%
Neprilysin; recombinant neprilysin, t = 2 hr
  remaining at 2 h: 97.7%
Neprilysin; recombinant neprilysin, t = 4 hr
  remaining at 4 h: 92.3%
Neprilysin; recombinant neprilysin, t = 8 hr
  remaining at 8 h: 91.2%
Neprilysin; recombinant neprilysin, t = 24 hr, read-out: Percentage remaining peptide (AUC at specified time-point by RP-HPLC) upon incubation with neprilysin, t = 24 hr
  remaining at 24 h: 91.9%
Neprilysin; t = 0
  Percentage remaining peptide (AUC at specified time-point by RP-HPLC) upon incubation with neprilysin, t = 0: 100%
[2]; mean of n1 and n2, read-out: Primary assay EC50 Mean pM GLP-1R
  EC50: 1.2 pM
[2]; replicate n2, read-out: Primary assay EC50 GLP-1R n2
  EC50: 1.45 pM
trypsin; t = 30 min
  remaining at 0.5 h: 98.9%
trypsin; t = 1 hr
  remaining at 1 h: 97.2%
trypsin; t = 2 hr
  remaining at 2 h: 94.8%
trypsin; t = 4 hr
  remaining at 4 h: 89.8%
trypsin; t = 8 hr
  remaining at 8 h: 85%
